Experimental data published in the NIST ThermoML archive (doi:10.1021/je800157v).

Assay: xn = mol fraction of the nth substance listed
Conditions: 101 kPa, Liquid

ClC(Cl)Cl [trichloromethane] + CCC(C)O
mass density [kg/m3]
Conditions	288.15 K	293.15 K	298.15 K	303.15 K	308.15 K	313.15 K
x2 = 0	1498.08	1488.64	1479.15	1469.61	1460.03	1450.41
x2 = 0.0514	1455.49	1446.33	1437.12	1427.86	1418.55	1409.22
x2 = 0.1045	1413.17	1404.26	1395.31	1386.31	1377.26	1368.2
x2 = 0.1518	1376.62	1367.94	1359.22	1350.44	1341.17	1332.78
x2 = 0.1962	1342.92	1334.49	1326.01	1317.48	1308.89	1300.27
x2 = 0.2512	1302.06	1293.92	1285.73	1277.49	1269.19	1260.86
x2 = 0.2998	1266.64	1258.77	1250.84	1242.86	1234.82	1226.74
x2 = 0.3507	1230.33	1222.74	1215.09	1207.39	1199.64	1191.86
x2 = 0.3995	1196.11	1188.78	1181.4	1173.96	1166.47	1158.94
x2 = 0.4502	1161.11	1154.06	1146.95	1139.78	1132.56	1125.28
x2 = 0.4978	1128.73	1121.94	1115.08	1108.17	1101.2	1094.2
x2 = 0.546	1096.47	1089.93	1083.34	1076.68	1069.96	1063.21
x2 = 0.6008	1060.39	1054.14	1047.83	1041.47	1035.03	1028.55
x2 = 0.6498	1028.63	1022.64	1016.59	1010.48	1004.3	998.07
x2 = 0.7008	995.87	990.15	984.37	978.52	972.61	966.65
x2 = 0.7446	968.17	962.68	957.13	951.51	945.82	940.07
x2 = 0.7984	934.4	929.2	923.93	918.6	913.19	907.74
x2 = 0.8507	901.92	897	892.02	886.97	881.84	876.65
x2 = 0.9	871.62	866.99	862.29	857.51	852.65	847.72
x2 = 0.9486	841.91	837.56	833.14	828.64	824.05	819.39

CCC(C)O (stereo unspecified) [butan-2-ol] + c1ccccc1
mass density [kg/m3]
Conditions	288.15 K	293.15 K	298.15 K	303.15 K	308.15 K	313.15 K
x1 = 0.0511	879.01	873.67	868.33	862.98	857.61	852.24
x1 = 0.0995	874.6	869.29	863.96	858.62	853.25	847.89
x1 = 0.1508	870.04	864.77	859.48	854.17	848.83	843.48
x1 = 0.2013	865.76	860.54	855.3	850.02	844.72	839.39
x1 = 0.2482	861.91	856.74	851.54	846.3	841.03	835.75
x1 = 0.2999	857.8	852.69	847.54	842.35	837.13	831.88
x1 = 0.3486	854.03	848.96	843.86	838.72	833.54	828.34
x1 = 0.3995	850.21	845.2	840.14	835.05	829.92	824.76
x1 = 0.4509	846.44	841.48	836.49	831.44	826.35	821.21
x1 = 0.5003	842.93	838.02	833.08	828.08	823.04	817.96
x1 = 0.5498	839.48	834.64	829.75	824.82	819.82	814.8
x1 = 0.5953	836.41	831.62	826.79	821.91	816.96	811.96
x1 = 0.6487	832.84	828.13	823.37	818.56	813.68	808.75
x1 = 0.7006	829.46	824.83	820.15	815.4	810.59	805.73
x1 = 0.7493	826.32	821.78	817.17	812.5	807.75	802.95
x1 = 0.802	822.97	818.51	814	809.41	804.74	800.01
x1 = 0.8501	819.96	815.6	811.17	806.66	802.07	797.4
x1 = 0.9003	816.84	812.58	808.25	803.84	799.34	794.77
x1 = 0.9206	815.57	811.36	807.07	802.7	798.25	793.72
x1 = 0.9479	813.92	809.76	804.85	801.21	796.18	791.73
x1 = 1	810.64	806.59	802.47	798.27	793.97	789.59
